Reference: patent US9884063B2, “Amido-substituted azole compounds” (Bayer Pharma Aktiengesellschaft, priority 2014, dated 2018)
Values joined by “and” are separate entries in the source; they are usually repeats but may differ in a detail not shown here. Equal values may be shown once. Where a name gives a salt, the structure may show the parent alone.

Columns and labels:
TNKS2 = molecular target: T1, TNKS2 (Homo sapiens, UniProt Q9H2K2); assay: Modified TNKS2 Assay 3 (BPS kit #80578, biotin-NAD+, 96 well); type: biochemical; conditions: human TNKS2, BPS kit #80578, 96 well
T1 sequence (Q9H2K2 1-1166): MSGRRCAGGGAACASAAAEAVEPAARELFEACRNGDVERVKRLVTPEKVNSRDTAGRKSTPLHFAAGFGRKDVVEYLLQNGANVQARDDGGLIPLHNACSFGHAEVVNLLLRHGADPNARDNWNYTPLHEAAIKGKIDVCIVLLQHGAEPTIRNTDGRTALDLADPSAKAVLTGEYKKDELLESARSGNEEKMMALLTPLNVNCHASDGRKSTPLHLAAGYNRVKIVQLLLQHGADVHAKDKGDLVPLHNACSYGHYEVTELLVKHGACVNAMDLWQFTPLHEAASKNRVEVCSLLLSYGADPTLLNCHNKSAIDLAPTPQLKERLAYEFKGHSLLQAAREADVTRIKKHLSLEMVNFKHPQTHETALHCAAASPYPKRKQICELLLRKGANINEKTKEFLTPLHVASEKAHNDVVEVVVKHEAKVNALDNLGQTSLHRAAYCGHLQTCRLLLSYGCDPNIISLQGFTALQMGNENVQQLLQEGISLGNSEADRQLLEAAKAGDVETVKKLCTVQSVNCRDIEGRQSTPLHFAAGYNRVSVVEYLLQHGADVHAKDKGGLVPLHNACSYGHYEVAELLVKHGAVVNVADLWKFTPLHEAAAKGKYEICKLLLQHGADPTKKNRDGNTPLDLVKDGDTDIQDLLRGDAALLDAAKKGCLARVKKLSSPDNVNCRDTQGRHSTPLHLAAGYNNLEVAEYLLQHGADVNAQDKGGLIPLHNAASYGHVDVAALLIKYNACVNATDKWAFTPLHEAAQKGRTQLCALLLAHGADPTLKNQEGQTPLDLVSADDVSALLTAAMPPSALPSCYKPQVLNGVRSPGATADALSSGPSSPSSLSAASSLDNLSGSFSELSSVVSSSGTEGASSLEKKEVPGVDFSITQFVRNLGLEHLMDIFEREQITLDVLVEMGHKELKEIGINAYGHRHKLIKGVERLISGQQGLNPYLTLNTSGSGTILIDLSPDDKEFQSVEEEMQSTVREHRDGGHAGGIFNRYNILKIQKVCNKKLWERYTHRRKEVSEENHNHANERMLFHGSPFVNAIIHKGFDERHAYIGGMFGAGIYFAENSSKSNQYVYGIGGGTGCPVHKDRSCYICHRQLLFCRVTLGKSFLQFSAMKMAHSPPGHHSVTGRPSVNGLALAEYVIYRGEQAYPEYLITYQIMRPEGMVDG
Summary of the method: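 Commercial kit assay measuring TNKS2-catalysed incorporation of biotin-labelled NAD+ into a protein substrate, detected by streptavidin-HRP chemiluminescence. Run per manufacturer's protocol; IC50 is the concentration halving the normalised signal.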

[1] = test system: wildtype Wnt signaling cascade; assay: HEK293 TOP Assay (Super TopFlash luciferase reporter, Wnt-3a stimulated); type: cell-based; conditions: Homo sapiens, HEK293 TOP reporter cell line, Wnt-3a at EC50, 16 hours incubation, compound dilution series 50 μM to 15 nM
Summary of the method: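 Compounds (50 μM down to 15 nM, 3.16-fold steps, in CAFTY buffer pH 7.4, 2 mM Ca2+, 0.01% BSA) tested in parallel on TOP and FOP HEK293 reporter lines to define selective wildtype Wnt inhibition. Pathway driven by recombinant human Wnt-3a applied at 2500–5 ng/ml in two-fold dilutions.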

SMILES	IC50 (TNKS2)	IC50 ([1]; HEK293, 16 h) [nM]	IC50 [1] [nM]
O=C(Nc1ccc(NC(=O)c2nc[nH]c2C(=O)NCCN2CCC(F)(F)CC2)cc1)c1ccc(F)cc1Cl [Example 224, N^4-{4-[(2-chloro-4-fluorobenzoyl)amino]phenyl}-N^5-[2-(4,4-difluoropiperidin-1-yl)ethyl]-1H-imidazole-4,5-dicarboxamide]	140 nM	1250	–
O=C(Nc1ccc(NC(=O)c2nc[nH]c2C(=O)NCCN2CCOCC2)cc1)c1ccc(F)cc1Cl [Example 227, N^4-{4-[(2-chloro-4-fluorobenzoyl)amino]phenyl}-N^5-[2-(morpholin-4-yl)ethyl]-1H-imidazole-4,5-dicarboxamide]	20 nM	120	–
O=C(Nc1ccc(NC(=O)c2nc[nH]c2C(=O)NCCN2CC[C@@H](F)C2)cc1)c1ccc(F)cc1Cl [Example 231, N^4-{4-[(2-chloro-4-fluorobenzoyl)amino]phenyl}-N^5-{2-[(3R)-3-fluoropyrrolidin-1-yl]ethyl}-1H-imidazole-4,5-dicarboxamide]	20 nM	70	–
O=C(Nc1ccc(NC(=O)c2nc[nH]c2C(=O)NCCN2CC[C@H](F)C2)cc1)c1ccc(F)cc1Cl [Example 232, N^4-{4-[(2-chloro-4-fluorobenzoyl)amino]phenyl}-N^5-{2-[(3S)-3-fluoropyrrolidin-1-yl]ethyl}-1H-imidazole-4,5-dicarboxamide]	40 nM	220	–
O=C(Nc1ccc(NC(=O)c2nc[nH]c2C(=O)NCC2CCOC2)cc1)c1ccc(F)cc1Cl (stereo not drawn) [Example 235, N^4-{4-[(2-chloro-4-fluorobenzoyl)amino]phenyl}-N^5-(tetrahydrofuran-3-ylmethyl)-1H-imidazole-4,5-dicarboxamide]	150 nM	240	–
CNC(=O)c1nc[nH]c1C(=O)Nc1ccc(NC(=O)c2ccc(OC)cc2Cl)cc1 [Example 246, N^5-{4-[(2-chloro-4-methoxybenzoyl)amino]phenyl}-N^4-methyl-1H-imidazole-4,5-dicarboxamide]	60 nM	200	–
CC(CN1CCOCC1)NC(=O)c1[nH]cnc1C(=O)Nc1ccc(NC(=O)c2ccc(F)cc2Cl)cc1 (stereo not drawn) [Example 268, N^4-{4-[(2-chloro-4-fluorobenzoyl)amino]phenyl}-N^5-[1-(morpholin-4-yl)propan-2-yl]-1H-imidazole-4,5-dicarboxamide]	3 nM	60	–
O=C(Nc1ccc(NC(=O)c2nc[nH]c2C(=O)NCCCN2CCCC2)cc1)c1ccc(F)cc1Cl [Example 274, N^4-{4-[(2-chloro-4-fluorobenzoyl)amino]phenyl}-N^5-[3-(pyrrolidin-1-yl)propyl]-1H-imidazole-4,5-dicarboxamide]	9 nM	290	–
CC(C)(N)CNC(=O)c1[nH]cnc1C(=O)Nc1ccc(NC(=O)c2ccc(F)cc2Cl)cc1 [Example 280, N^5-(2-amino-2-methylpropyl)-N^4-{4-[(2-chloro-4-fluorobenzoyl)amino]phenyl}-1H-imidazole-4,5-dicarboxamide]	30 nM	1050	–
O=C(Nc1ccc(NC(=O)c2nc[nH]c2C(=O)N[C@@H]2CCNC2)cc1)c1ccc(F)cc1Cl [Example 282, N^4-{4-[(2-chloro-4-fluorobenzoyl)amino]phenyl}-N^5-[(3R)-pyrrolidin-3-yl]-1H-imidazole-4,5-dicarboxamide hydrochloride salt]	10 nM	–	970

Further compounds by falling IC50 ([1]; HEK293, 16 h), results first:

IC50 (TNKS2)	IC50 ([1]; HEK293, 16 h) [nM]	SMILES	IC50 [1] [nM]
50 nM	800	O=C(Nc1ccc(NC(=O)c2nc[nH]c2C(=O)NCCN2CCCC(F)(F)C2)cc1)c1ccc(F)cc1Cl [Example 225, N^4-{4-[(2-chloro-4-fluorobenzoyl)amino]phenyl}-N^5-[2-(3,3-difluoropiperidin-1-yl)ethyl]-1H-imidazole-4,5-dicarboxamide]	–
190 nM	670	O=C(Nc1ccc(NC(=O)c2ocnc2C(=O)NCCN2CC[C@@H](F)C2)cc1)c1ccc(F)cc1Cl [Example 222, N^5-{4-[(2-chloro-4-fluorobenzoyl)amino]phenyl}-N^4-{2-[(3R)-3-fluoropyrrolidin-1-yl]ethyl}-1,3-oxazole-4,5-dicarboxamide]	–
20 nM	460	O=C(Nc1ccc(NC(=O)c2nc[nH]c2C(=O)NC2CCOCC2)cc1)c1ccc(F)cc1Cl [Example 234, N^4-{4-[(2-chloro-4-fluorobenzoyl)amino]phenyl}-N^5-(tetrahydro-2H-pyran-4-yl)-1H-imidazole-4,5-dicarboxamide]	–
160 nM	450	O=C(Nc1ccc(NC(=O)c2nc[nH]c2C(=O)NCC2CCOCC2)cc1)c1ccc(F)cc1Cl [Example 233, N^4-{4-[(2-chloro-4-fluorobenzoyl)amino]phenyl}-N^5-(tetrahydro-2H-pyran-4-ylmethyl)-1H-imidazole-4,5-dicarboxamide]	–
230 nM	430	O=C(Nc1ccc(NC(=O)c2nc[nH]c2C(=O)NCC2CCCO2)cc1)c1ccc(F)cc1Cl (stereo not drawn) [Example 237, N^4-{4-[(2-chloro-4-fluorobenzoyl)amino]phenyl}-N^5-(tetrahydrofuran-2-ylmethyl)-1H-imidazole-4,5-dicarboxamide]	–
340 nM	330	CC(C)(O)CNC(=O)c1[nH]cnc1C(=O)Nc1ccc(NC(=O)c2ccc(F)cc2Cl)cc1 [Example 223, N^4-{4-[(2-chloro-4-fluorobenzoyl)amino]phenyl}-N^5-(2-hydroxy-2-methylpropyl)-1H-imidazole-4,5-dicarboxamide]	–
20 nM	200	O=C(Nc1ccc(NC(=O)c2nc[nH]c2C(=O)NCCN2CCC(F)CC2)cc1)c1ccc(F)cc1Cl [Example 230, N^4-{4-[(2-chloro-4-fluorobenzoyl)amino]phenyl}-N^5-[2-(4-fluoropiperidin-1-yl)ethyl]-1H-imidazole-4,5-dicarboxamide]	–
30 nM	120	O=C(Nc1ccc(NC(=O)c2nc[nH]c2C(=O)NCCN2CCC[C@@H](F)C2)cc1)c1ccc(F)cc1Cl [Example 277, N^4-{4-[(2-chloro-4-fluorobenzoyl)amino]phenyl}-N^5-{2-[(3R)-3-fluoropiperidin-1-yl]ethyl}-1H-imidazole-4,5-dicarboxamide]	–
4 nM and < 0.5 nM	30	O=C(Nc1ccc(NC(=O)c2nc[nH]c2C(=O)NCCN2CCCC2)cc1)c1ccc(F)cc1Cl [Example 228, N^4-{4-[(2-chloro-4-fluorobenzoyl)amino]phenyl}-N^5-[2-(pyrrolidin-1-yl)ethyl]-1H-imidazole-4,5-dicarboxamide]	–
0.9 nM	30	C[C@H]1CCCCN1CCNC(=O)c1[nH]cnc1C(=O)Nc1ccc(NC(=O)c2ccc(F)cc2Cl)cc1 [Example 266, N^4-{4-[(2-chloro-4-fluorobenzoyl)amino]phenyl}-N^5-{2-[(25)-2-methylpiperidin-1-yl]ethyl}-1H-imidazole-4,5-dicarboxamide formic acid salt]	–
2 nM	30	O=C(Nc1ccc(NC(=O)c2nc[nH]c2C(=O)NCCN2CCC[C@H](O)C2)cc1)c1ccc(F)cc1Cl [Example 271, N^4-{4-[(2-chloro-4-fluorobenzoyl)amino]phenyl}-N^5-{2-[(3S)-3-hydroxypiperidin-1-yl]ethyl}-1H-imidazole-4,5-dicarboxamide]	–
